Values belong to the molecule of their own block, whether it stands above or below them.
Assay: photoluminescence quantum yield (fraction); solvent given as SMILES
[1] = in c1cc(-c2cccc(-n3c4ccccc4c4ccccc43)c2)cc(-n2c3ccccc3c3ccccc32)c1
[2] = in O=P(c1ccccc1)(c1ccccc1)c1ccccc1Oc1ccccc1P(=O)(c1ccccc1)c1ccccc1

SMILES: COC(=O)C(NC(=O)OC(C)(C)C)c1ccc2oc(-c3ccc(OC(=O)c4ccccc4)cc3O)nc2c1 (stereo not given)
photoluminescence quantum yield (in CC1CCCCC1): 0.03
photoluminescence quantum yield (in CC#N): 0.01
photoluminescence quantum yield (in CO): 0.003

SMILES: CCCCCCCCCCCCc1ccc(-c2cc(C)[o+]c(C)c2)cc1
photoluminescence quantum yield (in CC#N): 0.36
photoluminescence quantum yield (in ClCCl): 0.37

SMILES: COC(=O)/C(C#N)=c1/cc/c(=c2/cc/c(=C(\C#N)C(=O)OC)s2)s1
photoluminescence quantum yield (in Cc1ccccc1): 0.0035

SMILES: CC(C)(C)c1ccc2c(c1)c1cc(C(C)(C)C)ccc1n2-c1ccc(N(c2ccc(-c3ccc(N(c4ccc(-n5c6ccc(C(C)(C)C)cc6c6cc(C(C)(C)C)ccc65)cc4)c4ccc(-n5c6ccc(C(C)(C)C)cc6c6cc(C(C)(C)C)ccc65)cc4)cc3)cc2)c2ccc(-n3c4ccc(C(C)(C)C)cc4c4cc(C(C)(C)C)ccc43)cc2)cc1
photoluminescence quantum yield (in ClCCl): 0.55

SMILES: CCOC(=O)CSc1nc2c(c(C#N)c1C#N)CCCCCC2
photoluminescence quantum yield (in c1ccccc1): 0.039

SMILES: Cc1ccc(-c2c3nc(c(-c4ccc(C)cc4)c4ccc([nH]4)c(-c4ccc(OC(=O)C(C)c5ccc(Oc6ccccc6)cc5)cc4)c4nc(c(-c5ccc(C)cc5)c5ccc2[nH]5)C=C4)C=C3)cc1 (stereo not given)
photoluminescence quantum yield (in ClCCl): 0.128

SMILES: CCCCCCCCCCOc1cc(OCCCCCCCCCC)cc(C2=C3C(/C=C/c4ccc(N(C)C)cc4)=C(C#Cc4ccc(C(C)(C)C)cc4)C(/C=C/c4ccc(N(C)C)cc4)=[N+]3[B-](F)(F)n3c(/C=C/c4ccc(N(C)C)cc4)c(C#Cc4ccc(C(C)(C)C)cc4)c(/C=C/c4ccc(N(C)C)cc4)c32)c1
photoluminescence quantum yield (in ClC(Cl)Cl): 0.05

SMILES: CCCCCCN(CCCCCC)c1ccc(C#Cc2c(F)c(F)c(F)c(F)c2F)cc1
photoluminescence quantum yield (in CO): 0.0014
photoluminescence quantum yield (in ClCCl): 0.026

SMILES: CC(C)(C)c1cc2c3cc(C(C)(C)C)c(-c4cc5cc6c7cccc8cccc(c9cc(C(C)(C)C)cc(c5cc4C(C)(C)C)c96)c87)cc3cc3c4cccc5cccc(c(c1)c23)c54
photoluminescence quantum yield (in CC1CCCCC1): 0.64

SMILES: COc1ccc(C2=C(Br)C(c3ccccc3)=[N+]3C2=Nc2c(-c4ccc(OC)cc4)c(Br)c(-c4ccccc4)n2[B-]3(F)F)cc1
photoluminescence quantum yield (in Cc1ccccc1): 0.01

SMILES: C(#Cc1nccnc1C#Cc1ccccc1)c1ccccc1
photoluminescence quantum yield (in CC#N): 0.07

SMILES: N#Cc1c(-n2c3ccccc3c3ccccc32)c(-n2c3ccc(-c4ccccc4)cc3c3cc(-c4ccccc4)ccc32)c(-n2c3ccccc3c3ccccc32)c(-n2c3ccc(-c4ccccc4)cc3c3cc(-c4ccccc4)ccc32)c1-n1c2ccccc2c2ccccc21
photoluminescence quantum yield (in Cc1ccccc1): 0.81
photoluminescence quantum yield [1]: 0.8

SMILES: CN(C)c1ccc(C2=Nc3sc4cc(C(F)(F)F)ccc4[n+]3[B-](F)(F)O2)cc1
photoluminescence quantum yield (in C1CCOC1): 0.61
photoluminescence quantum yield (in CC#N): 0.05
photoluminescence quantum yield (in CC(C)=O): 0.13
photoluminescence quantum yield (in Cc1ccccc1): 0.93
photoluminescence quantum yield (in ClCCl): 1

SMILES: CCN(CC)c1ccc2cc(-c3csc(N)c3C#N)c(=O)oc2c1
photoluminescence quantum yield (in C1CCOC1): 0.62
photoluminescence quantum yield (in CO): 0.02
photoluminescence quantum yield (in CS(C)=O): 0.04
photoluminescence quantum yield (in Cc1ccccc1): 0.74
photoluminescence quantum yield (in ClCCl): 0.6

SMILES: N#Cc1ccc(N)c2nonc12
photoluminescence quantum yield (in C1COCCO1): 0.218
photoluminescence quantum yield (in CC#N): 0.105
photoluminescence quantum yield (in CCCCCC): 0.329
photoluminescence quantum yield (in CCO): 0.059
photoluminescence quantum yield (in Cc1ccccc1): 0.304
photoluminescence quantum yield (in ClCCl): 0.195
photoluminescence quantum yield (in O): 0.002

SMILES: CC(=O)[B-]1(C(C)=O)OC(C)=CC(c2ccc3ccccc3c2)=[O+]1
photoluminescence quantum yield (in CC#N): 0.13
photoluminescence quantum yield (in ClC(Cl)(Cl)Cl): 0.16

SMILES: O=C(O)c1ccccc1
photoluminescence quantum yield (in O): 0.001

SMILES: COc1cc(/C=C2/SC(=O)NC2=O)cc(OC)c1O
photoluminescence quantum yield (in C1CCCCC1): 0.032
photoluminescence quantum yield (in C1COCCO1): 0.03
photoluminescence quantum yield (in CC#N): 0.02
photoluminescence quantum yield (in CN(C)C=O): 0.042
photoluminescence quantum yield (in CO): 0.034
photoluminescence quantum yield (in O): 0.027
photoluminescence quantum yield (in OCC(O)CO): 0.38
photoluminescence quantum yield (in OCCO): 0.108

SMILES: CCOc1cc2c(cc1/C=C/C1=CC(=C(C#N)C#N)CC(C)(C)C1)c1ccccc1n2CC
photoluminescence quantum yield (in C1CCOC1): 0.021
photoluminescence quantum yield (in CC#N): 0.018
photoluminescence quantum yield (in CCO): 0.025
photoluminescence quantum yield (in CCOC(C)=O): 0.026
photoluminescence quantum yield (in CN(C)C=O): 0.035
photoluminescence quantum yield (in CS(C)=O): 0.05
photoluminescence quantum yield (in Cc1ccccc1): 0.008
photoluminescence quantum yield (in ClC(Cl)Cl): 0.017
photoluminescence quantum yield (in ClCCl): 0.028

SMILES: c1ccc(-c2cc(-c3ccc(N4c5ccccc5C(c5ccccc5)(c5ccccc5)c5ccccc54)cc3)nc(-c3ccccc3)n2)cc1
photoluminescence quantum yield [2]: 0.7

SMILES: COc1cc(C2=c3c(c4ccc(C(C)(C)C)cc4c4c(OC)c(OC)c(OC)cc34)=[N+]3C2=Nc2c(-c4cc(OC)c(OC)c(OC)c4)c4c5cc(OC)c(OC)c(OC)c5c5cc(C(C)(C)C)ccc5c4n2[B-]3(F)F)cc(OC)c1OC
photoluminescence quantum yield (in Cc1ccccc1): 0.001

SMILES: CC(C)[Si]1(C(C)C)c2cc(C=C(C#N)C#N)ccc2-c2ccc(N(C)C)cc21
photoluminescence quantum yield (in C1CCCCC1): 0.08
photoluminescence quantum yield (in CC#N): 0.32
photoluminescence quantum yield (in CCO): 0.16
photoluminescence quantum yield (in CCOCC): 0.56
photoluminescence quantum yield (in CS(C)=O): 0.23
photoluminescence quantum yield (in ClCCl): 0.56
photoluminescence quantum yield (in c1ccccc1): 0.36

SMILES: c1ccc2c(c1)c1ccccc1n2-c1ccc2c(c1)c1ccccc1n2-c1cc2c3ccccc3n3c4ccccc4c(c1)c23
photoluminescence quantum yield [2]: 0.53

Further lines, with some results ahead:

photoluminescence quantum yield (in C1CCOC1): 0.82
SMILES: COC(=O)c1cc2c(cc3ccc4cccc5ccc2c3c45)[nH]1

photoluminescence quantum yield (in CO): 0.0094
photoluminescence quantum yield (in CS(C)=O): 0.013
SMILES: COc1ccc(NC(=O)C(C(=O)Nc2ccc(OC)cc2)C(c2ccccc2O)c2c(C)[nH]c3ccccc23)cc1 (stereo not given)

photoluminescence quantum yield (in ClCCl): 0.0031
SMILES: c1ccc2c(c1)c1ccc3cccc4c3c1c2c1c2cccc3ccc5c6ccccc6c(c5c32)c41

photoluminescence quantum yield (in C1CCOC1): 0.7
photoluminescence quantum yield (in C1COCCO1): 0.75
photoluminescence quantum yield (in CC#N): 0.65
photoluminescence quantum yield (in CC(C)O): 0.57
photoluminescence quantum yield (in CCO): 0.5
photoluminescence quantum yield (in CCOC(C)=O): 0.75
photoluminescence quantum yield (in CN(C)C=O): 0.68
photoluminescence quantum yield (in CO): 0.38
photoluminescence quantum yield (in CS(C)=O): 0.69
photoluminescence quantum yield (in O): 0.56
SMILES: NS(=O)(=O)c1ccc(N2N=C(c3ccc(O)cc3)CC2c2ccc(Br)cc2)cc1 (stereo not given)

photoluminescence quantum yield (in ClC(Cl)Cl): 0.42
SMILES: CCCCCCN1C(=O)C(c2ccc(-n3c4ccccc4c4ccccc43)cc2)=C(c2ccc(-n3c4ccccc4c4ccccc43)cc2)C1=O
photoluminescence quantum yield (in c1ccc2c(c1)c1ccccc1n2-c1ccc(-c2ccc(-n3c4ccccc4c4ccccc43)cc2)cc1): 0.66

photoluminescence quantum yield [1]: 0.348
SMILES: O=C1c2cc(-n3c4ccccc4c4ccccc43)ccc2S(=O)(=O)c2ccc(-n3c4ccccc4c4ccccc43)cc21

photoluminescence quantum yield (in C1CCCCC1): 0.22
SMILES: CCn1c2ccccc2c2ccc(-c3ccc(OC)cc3)cc21

photoluminescence quantum yield (in ClC(Cl)Cl): 0.55
SMILES: N#Cc1ccc(Oc2ccc3c4c(cccc24)C(=O)N(CCO)C3=O)cc1

photoluminescence quantum yield (in ClCCl): 0.33
SMILES: CCCCCCN1C(=O)c2cccc3c(-c4ccc(-c5cc(-c6ccc(Cl)cc6)n(-c6ccccc6)n5)s4)ccc(c23)C1=O

photoluminescence quantum yield (in C1CCCCC1): 0.0018
photoluminescence quantum yield (in CC#N): 0.0048
SMILES: Cc1ccc(/C=C/c2ccccc2-[n+]2noc([O-])c2-c2ccccc2)cc1

photoluminescence quantum yield (in ClCCl): 0.12
SMILES: Brc1cc2nc3cc4c5c(cccc5c3nc2cc1Br)C(c1ccccc1)=C(c1ccccc1)O4

photoluminescence quantum yield (in ClCCl): 0.81
photoluminescence quantum yield (in c1cc(-n2c3ccccc3c3ccccc32)cc(-n2c3ccccc3c3ccccc32)c1): 0.86
SMILES: O=S1(=O)c2ccccc2C2(c3cc(-c4ccc(-n5c6ccccc6c6ccccc65)cc4)ccc3-c3ccc(-c4ccc(-n5c6ccccc6c6ccccc65)cc4)cc32)c2ccccc21

photoluminescence quantum yield (in ClC(Cl)Cl): 0.17
SMILES: F[B-]1(F)n2c(cc3ccc4ccccc4c32)C(c2ccc(I)cc2)=C2C=C3CCc4ccccc4C3=[N+]21
